This note sets out measurements from ChEMBL document CHEMBL1137978, “Three new compounds from the plant Lippia alva as inhibitors of chemokine receptor 5 (CCR5)” (Bioorg Med Chem Lett, 2004).

Structures are written as SMILES.

Format in all cases: functional, cell-based
Experiment [1] addresses T1, C-C chemokine receptor type 5 (Homo sapiens, UniProt P51681). The experiment is described as follows: Inhibition of RANTES co-receptor of chemokine receptor 5 induced calcium signal in U-87-CCR5 cells by calcium mobilization assay. (Calcium assays in cells follow changes in intracellular calcium, usually with a dye or a luminescent sensor.)
In experiment [2] the target is T1, C-C chemokine receptor type 5. The experiment can be described thus: Inhibition of MIP-1alpha ligand of chemokine receptor 5 induced calcium signal in U-87-CCR5 cells by calcium mobilization assay.
The target is the same in experiment [3]. The experiment can be described thus: Inhibition of MIP-1beta ligand of chemokine receptor 5 induced calcium signal in U-87-CCR5 cells by calcium mobilization assay.
The target is the same in experiment [4]. The experiment is described as follows: Inhibition of 50% of RANTES co-receptor of chemokine receptor 5 induced calcium signal in U-87-CCR5 cells by calcium mobilization assay.

For orientation: IC50 means the concentration needed to halve the response being measured.

T1 sequence (P51681 whole entry): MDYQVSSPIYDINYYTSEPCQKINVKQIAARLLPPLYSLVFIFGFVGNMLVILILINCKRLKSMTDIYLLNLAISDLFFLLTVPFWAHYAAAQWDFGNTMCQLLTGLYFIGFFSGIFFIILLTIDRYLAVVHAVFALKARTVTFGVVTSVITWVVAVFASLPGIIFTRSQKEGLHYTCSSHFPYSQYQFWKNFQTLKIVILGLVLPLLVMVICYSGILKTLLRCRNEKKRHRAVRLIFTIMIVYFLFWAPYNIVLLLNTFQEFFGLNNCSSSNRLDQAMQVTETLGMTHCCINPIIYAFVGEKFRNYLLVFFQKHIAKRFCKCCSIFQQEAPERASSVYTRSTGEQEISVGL

Regarding `CC(OC(=O)/C=C/c1ccc(O)cc1)C(=O)[C@H]1C[C@@H]1[C@H](O)[C@H]1CC=CC(=O)O1` (some centres undefined), the IC50 is > 10 µM in experiment [1], 10 µM in experiment [2] and 7.2 µM in experiment [3].
On the same counts, the results for `COc1ccc(/C=C\C(=O)OC(C)C(=O)[C@H]2C[C@@H]2[C@H](O)[C@H]2CC=CC(=O)O2)cc1` (some centres undefined) are > 10 µM, 8.8 µM and 6 µM.
In the case of `COc1ccc(/C=C/C(=O)OC(C)C(=O)[C@H]2C[C@@H]2[C@H](O)[C@H]2CC=CC(=O)O2)cc1` (some centres undefined), the IC50 was 8.7 µM in experiment [4], > 10 µM in experiment [2] and 5.5 µM in experiment [3].
